Test results from publication PMC3957892, “Antibiotic Streptolydigin Requires Noncatalytic Mg^2+ for Binding to RNA Polymerase” (Antimicrobial Agents and Chemotherapy, 2014).

Legend:
[1] = target: T1, WT Thermus aquaticus core RNAP (Thermus aquaticus, UniProt Q9KWU6+Q9KWU7); test: GTP (NMP) incorporation in assembled elongation complex EC1, WT RNAP; type: biochemical; conditions: for Ki: 1 mM GTP incorporation, 40°C
T1 construct: made in house
Description: (§1) Recombinant wild-type (WT) and mutant Thermus aquaticus core RNAPs were constructed and purified as described previously ([25]).
(§2) Elongation complexes (ECs) were assembled with WT and mutant (H936A/R933A and M932A [E. coli numbering]) RNAPs as described previously ([18]) and placed in transcription buffer containing 40 mM KCl and 20 mM Tris (pH 7.9). Prior to complex assembly, RNA was ^32P labeled at the 5′ end by using [γ-^32P]ATP (PerkinElmer). All reactions were carried out at 40°C. Stl (Sigma) with or without 10 mM MgCl2 was added before the reactions for 10 min at 40°C. Elongation reactions were initiated by addition of 1 mM GTP or 1 mM GTP with 10 mM MgCl2; endonucleolytic cleavage reactions were initiated by the addition of 10 mM MgCl2. Reactions were stopped by the addition of formamide-containing buffer, and products were analyzed as described previously ([18]). Fast kinetics experiments were performed as described previously ([18]). The kinetics data that were described well by a single exponent were fitted into a single-exponent equation using the nonlinear regression procedure in SigmaPlot software. Plots were normalized to the predicted maximum, which was taken as 100. The rates were then fitted in a hyperbolic equation to determine the Ki[Stl]. When the kinetics was described by a double exponent, the predicted maxima of the fast fractions were used for the fit to determine the Stl concentration that inhibited half of the complexes (equivalent of the Ki).
In order to investigate the details of the effects of Stl on RNAP active center functioning, we used artificially assembled elongation complexes (ECs). These complexes are assembled with Thermus aquaticus RNAP, fully complementary synthetic template and nontemplate DNA oligonucleotides, and an RNA oligonucleotide (Fig. 1C and D). […] We analyzed the kinetics of nucleoside monophosphate (NMP) addition in the presence of different concentrations of Stl in the elongation complex EC1, containing a 13-nucleotide-long RNA (Fig. 1C). […]

[2] = target: T1, WT Thermus aquaticus core RNAP; test: Intrinsic (endonucleolytic) cleavage / phosphodiester bond hydrolysis in elongation complex EC2, WT RNAP; type: biochemical
Description: as §1
as §2, with “When the kinetics was described by a double exponent, the predicted maxima of the fast fractions were used for the fit to determine the Stl concentration that inhibited half of the complexes (equivalent of the Ki).” left out

[3] = target: T2, Thermus aquaticus RNAP β′H936A/R933A mutant (Thermus aquaticus, UniProt Q9KWU6+Q9KWU7, H1242A/R1239A); test: GTP incorporation in elongation complex, H936A/R933A mutant RNAP; type: biochemical
T2 construct: made in house
Description: as §1
as §2, with “When the kinetics was described by a double exponent, the predicted maxima of the fast fractions were used for the fit to determine the Stl concentration that inhibited half of the complexes (equivalent of the Ki).” left out

[4] = target: T3, Thermus aquaticus RNAP β′M932A mutant (Thermus aquaticus, UniProt Q9KWU6+Q9KWU7, M1238A); test: GTP incorporation in elongation complex, M932A mutant RNAP; type: biochemical
T3 construct: made in house
Description: as §1
as §2, with “When the kinetics was described by a double exponent, the predicted maxima of the fast fractions were used for the fit to determine the Stl concentration that inhibited half of the complexes (equivalent of the Ki).” left out

[5] = Mg^2+ binding to Stl, titration followed by UV absorption spectrum; conditions: deduced from titration experiment (Fig. 2A), 20 mM HEPES buffer pH 8.0; read-out: Apparent affinity of Stl for Mg^2+
Description: The spectra of Stl were recorded using a UV160U UV-visible (UV-Vis) recording spectrophotometer (Shimadzu Scientific Instruments, Inc.) in a fused silica measuring cell in the presence of the indicated concentrations of the MgCl2 in 20 mM HEPES buffer (pH 8.0).
We attempted to directly visualize if Stl can bind Mg^2+. Stl has a distinct UV absorption spectrum.

eukaryotic RNAPs = tested on: eukaryotic RNAPs; design: method as in PMID 11124018, PMID 11297923, PMID 11839495; conditions: cited from earlier work
RNAP β′D792G = tested on: RNAP β′D792G; design: method as in PMID 7592585; conditions: cited from earlier work
E. coli RNAP β′N792D = tested on: E. coli RNAP β′N792D; design: method as in PMID 16167380; conditions: cited from earlier work
RNAP = tested on: RNAP; design: method as in PMID 791108; conditions: Stl analog lacking the acetamide group; cited from earlier work

Compound | Ki ([1]; Ki[Stl] (half-inhibitory concentration determined from the proportion of the fast fraction), Stl preincubated −Mg^2+) [µM] | Ki ([1]; Ki[Stl], Stl preincubated +Mg^2+ (10 mM MgCl2)) [µM] | Half-inhibitory concentration of Stl when preincubated with Mg^2+, times lower than when Mg^2+ was added together with NTP ([1]; NMP incorporation) [times] | Ki [2] [µM] | Concentration of Stl required to inhibit half of the ECs during hydrolysis, times lower than during NTP addition ([2]; WT RNAP, hydrolysis vs NTP addition, −Mg^2+ preincubation) [times] | Ki [3] [µM] | Half-inhibitory concentration of Stl for NMP incorporation, times lower than that for WT RNAP ([3]; β′H936A/R933A RNAP vs WT RNAP) [times] | Ki [4] [µM] | Half-inhibitory concentration of Stl for NMP incorporation, times lower than that for WT RNAP ([4]; β′M932A RNAP vs WT RNAP) [times] | Kd [5] [µM] | Inhibition of eukaryotic RNAPs (eukaryotic RNAPs) | Effect of mutation β′D792G on sensitivity to Stl (RNAP β′D792G) | Effect of β′N792D substitution in E. coli RNAP on sensitivity to Stl (E. coli RNAP β′N792D) | Inhibition of RNAP relative to Stl (RNAP)
CNC(=O)[C@@H](C)[C@H]1C(=O)/C(=C(O)/C=C/C(C)=C/[C@@H](C)[C@H]2O[C@@]3(C)O[C@H](C=C[C@@]34CO4)[C@@H]2C)C(=O)N1[C@@H]1CC[C@H](O)[C@H](C)O1 [Stl, streptolydigin] | 13.9 | 0.882 | ~15 | 1.83 | ~8 | 0.816 | 15 to 20 | 0.649 | 15 to 20 | ~1000 | does not inhibit | strong resistance | significant enhancement of the enzyme sensitivity | 
tirandamycin |  |  |  |  |  |  |  |  |  |  |  |  |  | significantly weaker inhibitor than Stl
